Test results reported in the pKa sets of Baltruschat and Czodrowski (2020).

Settings: acidic group

| SMILES | pKa |
| --- | --- |
| O=C(O)C1CC[NH2+]C1 (stereo not given) | 3.38 |
| Cc1cnc2c(O)cccc2c1 | 9.75 |
| C[NH+]1C[C@H](C(=O)O)C=C2c3cccc4[nH]cc(c34)C[C@@H]21 | 3.25 |
| O=C1CCC(C2CCCCC2)C(=O)C1 (stereo not given) | 5.5 |
| Cc1cc(O)nn1-c1ccccc1C(=O)[O-] | 12.2 |
| CC[NH+]1CCC[C@@H]1CNC(=O)c1c(OC)ccc(Cl)c1O | 7.07 |
| O=C(O)c1ccco1 | 3.18 |
| Sc1cnc2ccccc2c1 | 6.13 |
| Clc1cccc(-c2nnn[nH]2)c1 | 3.61 |
| CN1CC(O)C2=C/C(=N\O)C(=O)C=C21 (stereo not given) | 8.6 |
| Oc1oc(-c2ccccc2)nc1Cc1ccccc1 | 8.72 |
| CC[NH+](CC)CCCNC(=O)/C=N/O | 8.75 |
| CCC1(CC)SC(=O)NC1=O | 6.42 |
| CCOC(=O)c1cccc(O)c1 | 9.05 |
| C/C(=C\C=C\C(C)C(=O)O)[C@H]1C[NH2+][C@H](C(=O)O)[C@H]1CC(=O)O (stereo not given in full) | 2.1 |
| [NH3+]CCCCCCCCCCCC(=O)O | 4.65 |
| Cc1cc2ccccc2c(C(=O)O)c1C | 3.33 |
| [O-]c1ccc(O)cc1Cl | 10.8 |
| O=[N+]([O-])c1ccccc1[Se]O | 10.5 |
| N#CC(C#N)=NNc1ccc([N+](=O)[O-])cc1 | 5.5 |
| c1ccc([P+](c2ccccc2)(c2ccccc2)C2c3ccccc3-c3ccccc32)cc1 | 8.99 |
| CC1=NCCc2c1[nH]c1ccccc21 | 14.9 |
| CCC[n+]1cccc2c(O)cccc21 | 6.06 |
| COC(=O)c1cccc(NC=S)c1 | 10.8 |
| [NH3+]CCCCCC#CC#CCCC(=O)O | 4.17 |

| SMILES | pKa |
| --- | --- |
| Nc1c(C(=O)O)[nH+]cn1[C@H]1O[C@@H](CO)[C@H](O)[C@@H]1O | 2.9 |
| N#Cc1ccc(S(=O)(=O)NCc2ccccc2)cc1 | 10.3 |
| C[C@@H]1CC[C@H](C)[C@@H]1C(=O)O | 5.4 |
| O=C1C=CC(=NO)C=C1 | 6.36 |
| O=[N+]([O-])c1cccc2c[n+](CCO)ccc12 | 11.7 |
| CC(C)(Cl)C(=O)O | 2.97 |
| Clc1nnn[nH]1 | 2.07 |
| CCCCO | 15.6 |
| Cc1ccccc1B(O)O | 9.74 |
| Cc1cc(O)n(-c2nc(O)cc(C)[nH+]2)n1 | 5.23 |
| O=[N+]([O-])c1cccc(S)c1 | 5.24 |
| CC(C)=CCC(=O)O | 4.6 |
| O=[N+]([O-])c1ccc2c(c1)C([P+](c1ccccc1)(c1ccccc1)c1ccccc1)c1ccccc1-2.[Br-] (stereo not given) | 5.36 |
| NC(=S)c1ccc(Br)cc1 | 12.5 |
| O=C(O)CC1[NH2+]Nc2ccccc21 (stereo not given) | 2.9 |
| O=C(O)/C=C\c1c[nH]c[nH+]1 | 3 |
| O=Cc1ccccc1B(O)O | 7.31 |
| CNc1nnn[nH]1 | 6.06 |
| CCCCC#CC(=O)O | 2.61 |
| Cc1ccc(S(=O)(=O)NCC[NH+](CC(=O)O)CC(=O)O)cc1 | 2.15 |
| O=C(C[n+]1cccc2c3ccccc3ccc21)c1ccccc1 | 11.3 |
| O=[N+]([O-])c1ccc(O)c(C[NH+]2CCCCC2)c1 | 5.88 |
| O=C(O)c1cccc(C2CC2)c1 | 4.28 |
| O[n+]1ccc(OCc2ccccc2)cc1 | 1.99 |
| CCCC[NH+](CCS)CCCC | 7.76 |

| SMILES | pKa |
| --- | --- |
| CCCC(=O)c1cc(C(C)=O)n[nH]1 | 9.28 |
| N#CCCNC(CC(N)=O)C(=O)O (stereo not given) | 6.46 |
| COCCSC(C)O (stereo not given) | 14.2 |
| CNc1ncnc2nc[nH]c12 | 10 |
| CCC#CC#CC(=O)O | 1.91 |
| Cc1ccc(OCC(=O)N[C@H]2C(=O)N3[C@H]2SC(C)(C)[C@H]3C(=O)O)cc1 | 2.8 |
| O=C(O)c1ccc(I)o1 | 2.94 |
| O=C([O-])CNC(=O)CNS(=O)(=O)c1ccccc1 | 9.65 |
| O=C1C[C@@H](C(=O)O)[C@@H](C(=O)[O-])O1 | 4.5 |
| C[NH+]1CCC(n2nc(-c3ccccc3)c(Cc3ccccc3)c2O)CC1 | 6.73 |
| O=C(O)c1cscn1 | 3.64 |
| O=Cc1cc(Cl)ccc1O | 7.4 |
| Oc1ccc2cnccc2c1 | 9.15 |
| O[n+]1ccccc1 | 0.77 |
| Cn1c(=O)ccc2ccccc21 | -0.71 |
| NC(=O)CC(=O)c1ccncc1 | 7.91 |
| S=C(/N=N/c1ccc2ccccc2c1)NNc1ccc2ccccc2c1 | 12.7 |
| O=C(O)c1cnoc1 | 3.39 |
| C(COCCc1nnn[nH]1)OCCc1nnn[n-]1 | 5.37 |
| O=C(O)Cc1ccc2ccccc2c1 | 4.26 |
| O=[N+]([O-])c1cccc2c[n+](CCCO)ccc12 | 10.4 |
| CCCC[NH2+]CC(=O)O | 2.32 |
| Brc1cn[nH]c1 | 12.7 |
| O=[N+]([O-])c1ccc2c(c1)Cc1cc(O)ccc1-2 | 9.01 |

Same assay, conditions: basic group

| SMILES | pKa |
| --- | --- |
| O=C([O-])CSc1nc2cc3ccccc3cc2[nH]1 | 4.68 |
| CC(C)NC[Si](C)(C)C | 10.8 |
| Cc1ccc(-c2nnc(-c3ccccc3)o2)cc1 | 1.81 |
| C[N-]C(=O)Oc1ccc2c(c1)[C@@]1(C)CCN(C)[C@H]1N2C | 12.2 |
| CCN(CC)CCCCNc1cc[nH+]c2ccccc12 | 8.94 |
| Cc1nn(C)c(C)c1Cl | 1.96 |
| Cc1cnc2c(O)cccc2c1 | 4.93 |
| C[Si](C)(C)CNC[Si](C)(C)C | 11 |
| Cc1ccc(N)cc1[N+](=O)[O-] | 3 |
| O=C([O-])CCCc1c[nH]cn1 | 7.62 |
| c1ccc2c(c1)CNCCC[NH2+]Cc1ccccc1OCCCO2 | 7.89 |
| NCc1ccc(O)cc1 | 9.14 |
| CCCc1cccnn1 | 3.59 |
| Brc1ccc(Nc2ccccc2)cc1 | 1.73 |
| Cc1nc([O-])n[nH]1 | 9.43 |
| CCN(CC)CCNc1ccnc2ccccc12 | 8.95 |
| Cc1cnc(N(C)C)s1 | 6.08 |
| NC[C@@H](O)[C@H]1NC(N)=N[C@@H]1C(=O)[O-] | 11.9 |
| O=C(O)c1ccco1 | -0.53 |
| Sc1cnc2ccccc2c1 | 2.33 |
| CCC(=O)O[C@@]1(c2ccccc2)CCN(C)C[C@H]1C | 8.66 |
| O=C(/C=N/O)NCCN1CCOCC1 | 6.19 |
| CC[C@]12CCC[NH+]3CC[C@@]4(c5cccc(OC)c5N[C@H]4CC1)[C@@H]32 | 2.7 |
| CCN(C)CC | 10.4 |

| SMILES | pKa |
| --- | --- |
| CCOCCn1c(CN2CCN(CCCCn3cc(C(=O)[O-])cn3)CC2)nc2ccccc21 | 8 |
| Nc1cccc2cnccc12 | 5.59 |
| COc1ccc(OC)nn1 | 1.61 |
| CN(C)O | 5.2 |
| CC(C)(C)c1cccnc1 | 5.82 |
| Nc1nnnn1Cc1ccccc1 | 1.44 |
| CC1CCCC(C(=O)[O-])N1 (stereo not given) | 10.4 |
| Cc1cccc2cccnc12 | 4.87 |
| Nc1cc([N+](=O)[O-])c2ccccc2c1 | 2.62 |
| c1cc2c(nn1)CCCC2 | 4.3 |
| CC1=NCCc2c1[nH]c1ccccc21 | 8.99 |
| CCN(CC)CCC[NH+](CC)CC | 8.2 |
| CN(C)c1nc2cc3c(cc2[nH]1)CCCC3 | 7.65 |
| CCNN(C)CC | 6.81 |
| COc1ccc2nccc(C(O)C3CCCC[NH2+]3)c2c1 (stereo not given) | 4.34 |
| CCCCN(CC1CO1)CC1CO1 (stereo not given) | 6.91 |
| Cc1cccc(/N=N/c2ccc(N)cc2)c1 | 2.88 |
| Cc1cccc(N)c1-c1c(C)cccc1N | 3.7 |
| N=C1C=C(N)C(=O)c2ccccc21 | 8.87 |
| COc1ccc(-c2cnc(-c3ccc([NH3+])cc3)o2)cc1 | 0.27 |
| ONc1ccc(Cl)cc1 | 2.58 |
| CC(=O)NCCN | 9.28 |
| CN[C@H]1C[C@H]1NC | 8.73 |
| CCCCCCCCN(CC(O)CC)CC(O)CC (stereo not given) | 7.5 |

| SMILES | pKa |
| --- | --- |
| Nc1ccc(Cl)cc1Cl | 2.07 |
| CN(C)c1ccncc1 | 9.7 |
| [S-]c1ncnc2nccnc12 | 6.81 |
| Nc1nccc(-c2csc(N)[nH+]2)n1 | 2.6 |
| COCCNc1cccc(OC)c1 | 3.7 |
| N#CC(N)c1ccccc1 (stereo not given) | 4.4 |
| CCN(CC)CCOC(=O)c1ccc2ccccc2c1 | 7.52 |
| O=C1[C@H]2C[C@H](CN3CCCC=C23)[C@@H]2CCCCN12 | 9.7 |
| CCCCCCCCCCCCCCCCCCN(CC(O)CC)CC(O)CC (stereo not given) | 5.6 |
| Clc1ccc(Nc2ccccc2)cc1 | 0 |
| CCN(CC)CC(=O)NCc1ccccc1 | 8.07 |
| Cc1cc(C)n(Cc2cc(C)n(C)n2)[nH+]1 | 0.6 |
| CSCc1ccccn1 | 5.4 |
| CCC(C)(C)NC(C)(C)CC | 11.6 |
| Cc1nc2cccc([N+](=O)[O-])c2c(NCCC[NH+](C)C)c1C | 6.64 |
| Cc1ccccc1NC(=N)Nc1ccccc1C | 9.67 |
| CN1CCN(C)c2cccc3cccc1c23 | 4.62 |
| CNc1ncnc2nc[nH]c12 | 4.31 |
| C=C1[C@@H]2CC3C4N5C[C@]6(C)C[C@@H](OC(C)=O)[C@H](OC(C)=O)[C@]47C6[C@@H]5C[C@]3([C@H]1OC(C)=O)[C@@]7(O)C2 | 8.35 |
| CN(C)CCCCCCCCNC(=O)/C=N/[O-] | 10.5 |
| [NH3+]CCCc1ccccn1 | 4.98 |
| C[NH+](C)CCCNc1c2ccccc2nc2cccc([N+](=O)[O-])c12 | 6.2 |
| C=CCNc1ccccc1 | 4.17 |
| c1cnc2ccc3[nH+]cccc3c2c1 | 2.4 |

| SMILES | pKa |
| --- | --- |
| Cn1c[nH+]c2cc(N)ccc21 | 3.09 |
| O=C(O)c1cscn1 | 2.9 |
| C[NH2+]CCN(C)CC[NH2+]C | 3.13 |
| NCCC(=O)Oc1ccc([N+](=O)[O-])cc1 | 9.17 |
| c1cc(-c2ccncc2)ccn1 | 4.82 |
| CCCCc1ccccc1N | 4.26 |
| C/N=c1/sc2c(n1C)CCCC2 | 10 |
| Oc1ccc2cnccc2c1 | 5.85 |
| COC(=O)c1ccc(N)cc1 | 2.44 |
| C#CC(C)(C)N(C)C(C)C | 8.7 |
| CCNN | 7.95 |
| Cc1cccc2ncccc12 | 5 |
| Cc1cnc2ccc(C)c([N+](=O)[O-])c2c1NCCC[NH+](C)C | 6.07 |
| C=C(C)C(=O)OCCNCCCC | 9.12 |
| CC1CCCCC1=N (stereo not given) | 9.38 |
| CCCCCCCCCCCCCCN(CC(C)O)CC(O)CC (stereo not given) | 6.1 |
| COc1cc(S(N)(=O)=O)cc(C(=O)N[C@@H]2C[C@H]3CC[C@@H](C2)N3Cc2ccccc2)c1OC | 8.87 |
| CCNC(C)C | 11 |
| COCc1nc2c(n1C)C(=O)c1ncnc([O-])c1C2=O | 6.17 |
| CCN(CC)CC(=O)NC1CCc2ccccc21 (stereo not given) | 8.19 |
| N#CC1CN2CCC1CC2 (stereo not given) | 7.85 |
| Cc1ccc(N)nc1 | 7.22 |
| [S-]c1nccc2ccccc12 | 10.8 |
| CCCCCCCCN(CC(C)O)CC(O)CC (stereo not given) | 8.1 |
